According to ChEMBL document CHEMBL1909046, “DrugMatrix in vitro pharmacology data”:

What was measured:
[1] = DRUGMATRIX: Calcium Channel Type L, Benzothiazepine radioligand binding (ligand: [3H] Diltiazem); assay type: cell membranes, Rattus norvegicus, Wistar, Brain, Membrane; details: Not Active = under 50% inhibition at 10 µM
[2] = target: T1, 3-hydroxy-3-methylglutaryl-coenzyme A reductase (Homo sapiens, UniProt P04035); set-up: species or system Escherichia coli;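 note: enzyme inhibition assay of HMG-CoA reductase using radiolabeled [14C]HMG-CoA as substrate; in other assays of this panel Not Active means under 50% inhibition at 10 µM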
T1 sequence (P04035 whole entry): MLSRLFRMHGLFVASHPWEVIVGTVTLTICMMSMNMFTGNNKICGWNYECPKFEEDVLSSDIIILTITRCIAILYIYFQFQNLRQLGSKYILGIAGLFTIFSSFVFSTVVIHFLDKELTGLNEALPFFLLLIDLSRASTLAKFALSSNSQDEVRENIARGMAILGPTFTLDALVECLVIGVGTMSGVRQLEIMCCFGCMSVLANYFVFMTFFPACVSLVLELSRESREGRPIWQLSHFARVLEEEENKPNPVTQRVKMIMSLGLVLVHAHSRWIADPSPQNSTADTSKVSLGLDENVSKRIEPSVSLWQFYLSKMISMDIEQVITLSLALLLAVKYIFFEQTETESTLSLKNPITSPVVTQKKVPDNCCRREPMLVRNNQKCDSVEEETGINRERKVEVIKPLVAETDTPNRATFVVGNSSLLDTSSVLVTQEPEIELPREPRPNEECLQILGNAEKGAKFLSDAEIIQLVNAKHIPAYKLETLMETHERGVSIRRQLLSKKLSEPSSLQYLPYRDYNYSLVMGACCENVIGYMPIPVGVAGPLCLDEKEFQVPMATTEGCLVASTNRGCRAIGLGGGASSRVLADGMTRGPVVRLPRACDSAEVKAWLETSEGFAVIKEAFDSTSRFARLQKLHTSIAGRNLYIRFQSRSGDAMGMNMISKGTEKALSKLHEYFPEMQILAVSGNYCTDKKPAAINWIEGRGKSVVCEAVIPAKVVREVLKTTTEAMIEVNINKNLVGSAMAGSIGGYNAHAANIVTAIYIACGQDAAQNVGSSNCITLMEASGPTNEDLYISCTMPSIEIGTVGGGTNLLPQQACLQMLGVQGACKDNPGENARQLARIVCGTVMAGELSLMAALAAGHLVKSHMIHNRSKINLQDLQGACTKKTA

Cytochrome P450 2C19 = Cytochrome P450 2C19 (Homo sapiens, UniProt P33261); details: bti-tn-5b1-4; note: in other assays of this panel Not Active means under 50% inhibition at 10 µM
[3] = target: Platelet-activating factor receptor (Homo sapiens, UniProt P25105); assay: biochemical; assay type: tissue-based; note: in other assays of this panel Not Active means under 50% inhibition at 10 µM
[4] = target: T2, Alpha-1B adrenergic receptor (Rattus norvegicus, UniProt P15823); assay: DRUGMATRIX: Alpha-1B adrenergic receptor radioligand binding (ligand: prazosin); assay type: cell membranes, Wistar, Liver, Membrane; details: Not Active = under 50% inhibition at 10 µM
T2 sequence (P15823 whole entry): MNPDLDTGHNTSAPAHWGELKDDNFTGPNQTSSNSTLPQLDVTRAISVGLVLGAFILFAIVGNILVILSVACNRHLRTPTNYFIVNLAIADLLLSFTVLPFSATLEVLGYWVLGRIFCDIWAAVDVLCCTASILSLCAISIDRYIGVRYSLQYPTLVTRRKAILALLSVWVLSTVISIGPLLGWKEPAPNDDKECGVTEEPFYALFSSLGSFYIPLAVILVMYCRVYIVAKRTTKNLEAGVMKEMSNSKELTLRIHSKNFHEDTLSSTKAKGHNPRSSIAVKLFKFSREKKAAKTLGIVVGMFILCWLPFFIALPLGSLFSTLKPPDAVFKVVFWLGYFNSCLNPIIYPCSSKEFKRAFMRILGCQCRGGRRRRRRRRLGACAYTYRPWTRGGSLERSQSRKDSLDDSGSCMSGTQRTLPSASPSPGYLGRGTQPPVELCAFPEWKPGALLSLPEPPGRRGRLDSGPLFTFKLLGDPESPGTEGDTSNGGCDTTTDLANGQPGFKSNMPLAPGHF

[5] = DRUGMATRIX: GABAA, Chloride Channel, TBOB radioligand binding (ligand: [3H] TBOB); assay type: cell membranes, Rattus norvegicus, Wistar, Cerebral cortex, Membrane; details: Not Active = under 50% inhibition at 10 µM
Cytochrome P450 2D6 = Cytochrome P450 2D6 (Homo sapiens, UniProt P10635); details: bti-tn-5b1-4; note: in other assays of this panel Not Active means under 50% inhibition at 10 µM
Sequence of Cytochrome P450 2D6 (P10635 whole entry): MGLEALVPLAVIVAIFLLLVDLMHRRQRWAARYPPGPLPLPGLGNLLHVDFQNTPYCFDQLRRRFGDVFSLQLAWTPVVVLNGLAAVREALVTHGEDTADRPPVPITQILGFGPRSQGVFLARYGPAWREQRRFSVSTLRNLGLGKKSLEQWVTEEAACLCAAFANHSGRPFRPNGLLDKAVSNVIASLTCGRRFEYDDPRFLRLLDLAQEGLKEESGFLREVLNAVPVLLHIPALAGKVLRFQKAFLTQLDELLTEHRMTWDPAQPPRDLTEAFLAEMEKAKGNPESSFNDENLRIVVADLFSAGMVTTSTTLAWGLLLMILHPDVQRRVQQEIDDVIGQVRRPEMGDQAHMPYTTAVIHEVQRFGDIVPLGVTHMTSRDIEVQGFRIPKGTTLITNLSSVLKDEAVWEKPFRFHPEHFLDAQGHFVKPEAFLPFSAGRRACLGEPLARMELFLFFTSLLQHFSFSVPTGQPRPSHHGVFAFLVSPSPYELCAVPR

Sequence of Platelet-activating factor receptor (P25105 whole entry): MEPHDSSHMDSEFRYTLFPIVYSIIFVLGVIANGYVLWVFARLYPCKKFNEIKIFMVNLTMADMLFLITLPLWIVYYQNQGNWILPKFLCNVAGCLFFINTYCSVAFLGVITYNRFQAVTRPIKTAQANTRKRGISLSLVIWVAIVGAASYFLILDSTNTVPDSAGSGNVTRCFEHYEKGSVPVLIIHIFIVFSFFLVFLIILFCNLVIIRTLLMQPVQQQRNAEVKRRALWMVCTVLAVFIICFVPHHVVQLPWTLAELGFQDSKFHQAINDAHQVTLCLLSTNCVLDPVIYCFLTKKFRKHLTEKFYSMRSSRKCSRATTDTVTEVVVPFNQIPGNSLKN
Sequence of Cytochrome P450 2C19 (P33261 whole entry): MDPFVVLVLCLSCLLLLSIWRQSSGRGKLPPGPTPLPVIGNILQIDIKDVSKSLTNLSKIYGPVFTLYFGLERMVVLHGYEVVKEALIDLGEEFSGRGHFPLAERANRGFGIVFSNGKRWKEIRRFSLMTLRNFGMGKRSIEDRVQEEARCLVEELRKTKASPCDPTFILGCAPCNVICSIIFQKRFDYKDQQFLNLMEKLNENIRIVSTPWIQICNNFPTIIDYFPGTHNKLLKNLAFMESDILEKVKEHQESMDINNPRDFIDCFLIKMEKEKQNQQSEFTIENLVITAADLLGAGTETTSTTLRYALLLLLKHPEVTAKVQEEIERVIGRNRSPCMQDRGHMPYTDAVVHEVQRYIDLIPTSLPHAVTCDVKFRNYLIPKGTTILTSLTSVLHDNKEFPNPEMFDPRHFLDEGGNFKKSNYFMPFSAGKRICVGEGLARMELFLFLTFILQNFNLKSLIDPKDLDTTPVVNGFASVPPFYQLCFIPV

With `CS(=O)(=O)OCCCCOS(C)(=O)=O` [BUSULFAN] the IC50 [1] was “Not Active”, the Ki [1] was “Not Active” and the IC50 [2] was “Not Active”. For the same compound, the IC50 (Cytochrome P450 2C19) was “Not Active”, the Ki (Cytochrome P450 2C19) was “Not Active” and the IC50 ([3]; platelet) was “Not Active”. The IC50 [4] was “Not Active”, the IC50 [5] was “Not Active” and the Ki [5] was “Not Active”. The IC50 (Cytochrome P450 2D6) was “Not Active” and the Ki (Cytochrome P450 2D6) was “Not Active”.
With `CC[C@H]1OC(=O)[C@H](C)[C@@H](O[C@H]2C[C@@](C)(OC)[C@@H](O)[C@H](C)O2)[C@H](C)[C@@H](O[C@@H]2O[C@H](C)C[C@H](N(C)C)[C@H]2O)[C@](C)(O)C[C@@H](C)CN(C)[C@H](C)[C@@H](O)[C@]1(C)O` [AZITHROMYCIN] the IC50 [1] was “Not Active”, the Ki [1] was “Not Active” and the IC50 [2] was “Not Active”. For the same compound, the IC50 (Cytochrome P450 2C19) was “Not Active”, the Ki (Cytochrome P450 2C19) was “Not Active” and the IC50 ([3]; platelet) was “Not Active”. For the same compound, the IC50 [4] was “Not Active”, the IC50 [5] was “Not Active” and the Ki [5] was “Not Active”. For the same compound, the IC50 (Cytochrome P450 2D6) was “Not Active” and the Ki (Cytochrome P450 2D6) was “Not Active”.
In the case of `CC(=O)OCC(CCn1cnc2cnc(N)nc21)COC(C)=O` [FAMCICLOVIR], the IC50 [1] is reported as “Not Active”, the Ki [1] is reported as “Not Active” and the IC50 [2] is reported as “Not Active”. For the same compound, the IC50 (Cytochrome P450 2C19) was “Not Active”, the Ki (Cytochrome P450 2C19) was “Not Active” and the IC50 ([3]; platelet) was “Not Active”. The IC50 [4] was “Not Active”, the IC50 [5] was “Not Active” and the Ki [5] was “Not Active”. The IC50 (Cytochrome P450 2D6) was “Not Active” and the Ki (Cytochrome P450 2D6) was “Not Active”.
For `Cc1c(F)c(N2CCNC(C)C2)cc2c1c(=O)c(C(=O)O)cn2C1CC1` (configuration not stated) [GREPAFLOXACIN], the IC50 [1] was “Not Active”, the Ki [1] was “Not Active” and the IC50 [2] was “Not Active”. The IC50 (Cytochrome P450 2C19) was “Not Active”, the Ki (Cytochrome P450 2C19) was “Not Active” and the IC50 ([3]; platelet) was “Not Active”. For the same compound, the IC50 [4] was “Not Active”, the IC50 [5] was “Not Active” and the Ki [5] was “Not Active”. The IC50 (Cytochrome P450 2D6) was “Not Active” and the Ki (Cytochrome P450 2D6) was “Not Active”.
With `CC(C(=O)O)c1ccc(-c2ccccc2)c(F)c1` (configuration not stated) [FLURBIPROFEN] the IC50 [1] was “Not Active”, the Ki [1] was “Not Active” and the IC50 [2] was “Not Active”. The IC50 (Cytochrome P450 2C19) was “Not Active”, the Ki (Cytochrome P450 2C19) was “Not Active” and the IC50 ([3]; platelet) was “Not Active”. For the same compound, the IC50 [4] was “Not Active”, the IC50 [5] was “Not Active” and the Ki [5] was “Not Active”. The IC50 (Cytochrome P450 2D6) was “Not Active” and the Ki (Cytochrome P450 2D6) was “Not Active”.
With `COC(=O)c1ccccc1O` [METHYL SALICYLATE] the IC50 [1] was “Not Active”, the Ki [1] was “Not Active” and the IC50 [2] was “Not Active”. The IC50 (Cytochrome P450 2C19) was “Not Active”, the Ki (Cytochrome P450 2C19) was “Not Active” and the IC50 ([3]; platelet) was “Not Active”. For the same compound, the IC50 [4] was “Not Active”, the IC50 [5] was “Not Active” and the Ki [5] was “Not Active”. For the same compound, the IC50 (Cytochrome P450 2D6) was “Not Active” and the Ki (Cytochrome P450 2D6) was “Not Active”.
For `O=C(O)c1cccnc1` [NIACIN], the IC50 [1] was “Not Active”, the Ki [1] was “Not Active” and the IC50 [2] was “Not Active”. The IC50 (Cytochrome P450 2C19) was “Not Active”, the Ki (Cytochrome P450 2C19) was “Not Active” and the IC50 ([3]; platelet) was “Not Active”. The IC50 [4] was “Not Active”, the IC50 [5] was “Not Active” and the Ki [5] was “Not Active”. For the same compound, the IC50 (Cytochrome P450 2D6) was “Not Active” and the Ki (Cytochrome P450 2D6) was “Not Active”.
With COBALT(II) ACETYLACETONATE the IC50 [1] was “Not Active”, the Ki [1] was “Not Active” and the IC50 [2] was “Not Active”. The Ki [2] was “Not Active”, the IC50 (Cytochrome P450 2C19) was “Not Active” and the Ki (Cytochrome P450 2C19) was “Not Active”. The IC50 ([3]; platelet) was “Not Active”, the Ki ([3]; platelet) was “Not Active” and the IC50 [4] was “Not Active”. For the same compound, the Ki [4] was “Not Active”, the IC50 [5] was “Not Active” and the Ki [5] was “Not Active”. The IC50 (Cytochrome P450 2D6) was “Not Active” and the Ki (Cytochrome P450 2D6) was “Not Active”.
In the case of `CN(C(=O)CCCOc1ccc2[nH]c(=O)ccc2c1)C1CCCCC1` [CILOSTAMIDE], the IC50 [1] is reported as “Not Active”, the Ki [1] is reported as “Not Active” and the IC50 [2] is reported as “Not Active”. The IC50 (Cytochrome P450 2C19) was “Not Active”, the Ki (Cytochrome P450 2C19) was “Not Active” and the IC50 ([3]; read-out: IC50) was 3690 nM. For the same compound, the Ki ([3]; read-out: Ki) was 1920 nM, the IC50 [4] was “Not Active” and the IC50 [5] was “Not Active”. The Ki [5] was “Not Active”, the IC50 (Cytochrome P450 2D6) was “Not Active” and the Ki (Cytochrome P450 2D6) was “Not Active”.
In the case of INSULIN HUMAN, the IC50 [1] is reported as “Not Active”, the Ki [1] is reported as “Not Active” and the IC50 [2] is reported as “Not Active”. For the same compound, the Ki [2] was “Not Active”, the IC50 (Cytochrome P450 2C19) was “Not Active” and the Ki (Cytochrome P450 2C19) was “Not Active”. For the same compound, the IC50 ([3]; platelet) was “Not Active”, the Ki ([3]; platelet) was “Not Active” and the IC50 [4] was “Not Active”. For the same compound, the Ki [4] was “Not Active”, the IC50 [5] was “Not Active” and the Ki [5] was “Not Active”. The IC50 (Cytochrome P450 2D6) was “Not Active” and the Ki (Cytochrome P450 2D6) was “Not Active”.
